Source: patent US8394969B2, “Cyclic benzimidazole derivatives useful as anti-diabetic agents” (Merck Sharp & Dohme Corp., priority 2008, dated 2013)

molecular target: recombinant human AMPK complex 1 (containing α1β1γ1) (Homo sapiens, UniProt Q13131+Q9Y478); test: […] (in vitro AMPK activation assay); type: biochemical; conditions: recombinant human AMPK complex 1 (α1β1γ1); basal activity subtracted; read-out: % Maximum AMP Activation of human AMPK Complex 1
Sequence (Q13131 whole entry): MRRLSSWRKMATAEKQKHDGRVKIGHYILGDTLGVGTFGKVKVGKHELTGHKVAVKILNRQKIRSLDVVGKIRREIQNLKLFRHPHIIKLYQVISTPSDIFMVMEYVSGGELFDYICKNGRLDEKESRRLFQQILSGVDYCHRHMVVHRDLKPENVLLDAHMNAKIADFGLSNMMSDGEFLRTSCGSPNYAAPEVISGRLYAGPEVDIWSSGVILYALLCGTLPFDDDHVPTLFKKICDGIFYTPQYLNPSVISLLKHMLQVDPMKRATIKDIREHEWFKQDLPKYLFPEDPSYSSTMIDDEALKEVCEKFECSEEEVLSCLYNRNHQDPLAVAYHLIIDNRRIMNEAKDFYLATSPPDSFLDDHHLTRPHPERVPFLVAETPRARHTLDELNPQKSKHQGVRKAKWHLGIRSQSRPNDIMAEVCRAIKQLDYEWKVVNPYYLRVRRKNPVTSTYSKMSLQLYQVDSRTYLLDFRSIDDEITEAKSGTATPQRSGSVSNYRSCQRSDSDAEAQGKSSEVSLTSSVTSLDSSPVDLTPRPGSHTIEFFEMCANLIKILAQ
Sequence (Q9Y478 whole entry): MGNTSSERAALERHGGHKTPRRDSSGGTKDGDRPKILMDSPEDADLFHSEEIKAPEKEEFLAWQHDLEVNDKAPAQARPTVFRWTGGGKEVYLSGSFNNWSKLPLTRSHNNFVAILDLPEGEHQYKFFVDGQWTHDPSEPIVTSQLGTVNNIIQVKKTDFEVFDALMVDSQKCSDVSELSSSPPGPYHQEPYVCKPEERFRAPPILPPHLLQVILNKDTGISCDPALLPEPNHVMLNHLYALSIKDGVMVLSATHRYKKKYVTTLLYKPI
Sequence (P54619 whole entry partner): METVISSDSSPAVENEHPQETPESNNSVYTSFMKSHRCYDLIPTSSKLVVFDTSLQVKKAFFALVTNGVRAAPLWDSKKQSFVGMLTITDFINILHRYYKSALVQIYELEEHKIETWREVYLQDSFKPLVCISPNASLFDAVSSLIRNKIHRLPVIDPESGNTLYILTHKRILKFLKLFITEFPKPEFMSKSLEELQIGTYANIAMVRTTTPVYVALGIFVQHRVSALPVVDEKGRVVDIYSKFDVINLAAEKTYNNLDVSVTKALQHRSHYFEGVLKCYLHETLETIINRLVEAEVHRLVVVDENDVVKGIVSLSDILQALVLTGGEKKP

**Q.** How did the Emax turn out when `Cc1ccc(Oc2nc3cc(C#Cc4ccc(C(=O)O)cc4)c(Cl)cc3[nH]2)cc1C(=O)O` [Example 181, 5-[5-(4-Carboxy-phenylethynyl)-6-chloro-1H-benzoimidazol-2-yloxy]-2-methyl-benzoic acid] was run?
**A.** Its Emax is greater than 80%.

**Q.** With `Cc1ccc(Oc2nc3cc(-c4ccc(-c5cccc(F)c5)cc4)c(Cl)cc3[nH]2)cc1C(=O)O` [Example 185, 5-{[6-chloro-5-(3′-fluorobiphenyl-4-yl)-1H-benzimidazol-2-yl]oxy}-2-methylbenzoic acid] as the molecule, how does the Emax read?
**A.** The Emax was greater than 80%.

**Q.** `Cc1ccc(Oc2nc3cc(-c4ccc(-c5cccc(Cl)c5)cc4)c(Cl)cc3[nH]2)cc1C(=O)O` [Example 186, 5-{[6-chloro-5-(3′-chlorobiphenyl-4-yl)-1H-benzimidazol-2-yl]oxy}-2-methylbenzoic acid] was tested. Which Emax did it give?
**A.** The Emax was greater than 80%.

**Q.** Which Emax does the source give for `COc1cccc(-c2ccc(-c3cc4nc(Oc5ccc(C)c(C(=O)O)c5)[nH]c4cc3Cl)cc2)c1` [Example 187, 5-{[6-chloro-5-(3′-methoxybiphenyl-4-yl)-1H-benzimidazol-2-yl]oxy}-2-methylbenzoic acid] here?
**A.** The Emax was greater than 80%.

**Q.** How did the Emax turn out when `Cc1ccc(Oc2nc3cc(-c4ccc(-c5ccc(O)nc5)cc4)c(Cl)cc3[nH]2)cc1C(=O)O` [Example 188, 5-({6-chloro-5-[4-(6-hydroxypyridin-3-yl)phenyl]-1H-benzimidazol-2-yl}oxy)-2-methylbenzoic acid] was run?
**A.** Its Emax is greater than 80%.

**Q.** How did the Emax turn out when `Cc1ccc(Oc2nc3cc(-c4ccc(-c5ccccc5Cl)cc4)c(Cl)cc3[nH]2)cc1C(=O)O` [Example 191, 5-{[6-chloro-5-(2′-chlorobiphenyl-4-yl)-1H-benzimidazol-2-yl]oxy}-2-methylbenzoic acid] was run?
**A.** Its Emax is greater than 80%.

**Q.** For `Cc1ccc(Oc2nc3cc(-c4ccc(-c5ccccc5F)cc4)c(Cl)cc3[nH]2)cc1C(=O)O` [Example 192, 5-{[6-chloro-5-(2′-fluorobiphenyl-4-yl)-1H-benzimidazol-2-yl]oxy}-2-methylbenzoic acid], which Emax is on record?
**A.** The Emax was greater than 80%.

**Q.** Which Emax does the source give for `Cc1ccc(Oc2nc3cc(-c4ccc(-c5ccccc5C)cc4)c(Cl)cc3[nH]2)cc1C(=O)O` [Example 193, 5-{[6-chloro-5-(2′-methylbiphenyl-4-yl)-1H-benzimidazol-2-yl]oxy}-2-methylbenzoic acid] here?
**A.** Its Emax is greater than 80%.

**Q.** With `COc1ccccc1-c1ccc(-c2cc3nc(Oc4ccc(C)c(C(=O)O)c4)[nH]c3cc2Cl)cc1` [Example 194, 5-{[6-chloro-5-(2′-methoxybiphenyl-4-yl)-1H-benzimidazol-2-yl]oxy}-2-methylbenzoic acid] as the molecule, how does the Emax read?
**A.** Its Emax is greater than 80%.

**Q.** Which Emax does the source give for `COC(=O)c1cc(Oc2nc3cc(-c4ccc(-c5ccccc5F)cc4)c(Cl)cc3[nH]2)ccc1C` [Example 195, Methyl 5-{[6-chloro-5-(2′-fluorobiphenyl-4-yl)-1H-benzimidazol-2-yl]oxy}-2-methylbenzoate] here?
**A.** The Emax was greater than 80%.

**Q.** With `COC(=O)c1cc(Oc2nc3cc(-c4ccc(-c5ccccc5Cl)cc4)c(Cl)cc3[nH]2)ccc1C` [Example 196, Methyl 5-{[6-chloro-5-(2′-chlorobiphenyl-4-yl)-1H-benzimidazol-2-yl]oxy}-2-methylbenzoate] as the molecule, how does the Emax read?
**A.** Its Emax is greater than 80%.

**Q.** `COC(=O)c1cc(Oc2nc3cc(-c4ccc(-c5ccccc5OC)cc4)c(Cl)cc3[nH]2)ccc1C` [Example 197, Methyl 5-{[6-chloro-5-(2′-methoxybiphenyl-4-yl)-1H-benzimidazol-2-yl]oxy}-2-methylbenzoate] was tested. Which Emax did it give?
**A.** The Emax was greater than 80%.

**Q.** How did the Emax turn out when `COC(=O)c1cc(Oc2nc3cc(-c4ccc(-c5ccccc5C)cc4)c(Cl)cc3[nH]2)ccc1C` [Example 198, Methyl 5-{[6-chloro-5-(2′-methylbiphenyl-4-yl)-1H-benzimidazol-2-yl]oxy}-2-methylbenzoate] was run?
**A.** The Emax was greater than 80%.

**Q.** For `COc1ncccc1-c1ccc(-c2cc3nc(Oc4ccc(C)c(C(=O)O)c4)[nH]c3cc2Cl)cc1` [Example 199, 5-({6-chloro-5-[4-(2-methoxypyridin-3-yl)phenyl]-1-benzimidazol-2-yl}oxy)-2-methylbenzoic acid], which Emax is on record?
**A.** The Emax was greater than 80%.

**Q.** How did the Emax turn out when `COc1ccc(-c2ccc(-c3cc4nc(Oc5ccc(C)c(C(=O)O)c5)[nH]c4cc3Cl)cc2)cn1` [Example 201, 5-({6-chloro-5-[4-(6-methoxypyridin-3-yl)phenyl]-1H-benzimidazol-2-yl}oxy)-2-methylbenzoic acid] was run?
**A.** The Emax was greater than 80%.

**Q.** With `Cc1ccc(Oc2nc3cc(-c4ccc(-c5cn[nH]c5)cc4)c(Cl)cc3[nH]2)cc1C(=O)O` [Example 202, 5-({6-chloro-5-[4-(1H-pyrazol-4-yl)phenyl]-1H-benzimidazol-2-yl}oxy)-2-methylbenzoic acid] as the molecule, how does the Emax read?
**A.** The Emax was greater than 80%.

**Q.** Which Emax does the source give for `Cc1ccc(Oc2nc3cc(-c4ccc(-c5c(C)n[nH]c5C)cc4)c(Cl)cc3[nH]2)cc1C(=O)O` [Example 203, 5-({6-chloro-5-[4-(3,5-dimethyl-1H-pyrazol-4-yl)phenyl]-1H-benzimidazol-2-yl}oxy)-2-methylbenzoic acid] here?
**A.** Its Emax is greater than 80%.

**Q.** With `Cc1ccc(Oc2nc3cc(-c4ccc(-c5c(C)noc5C)cc4)c(Cl)cc3[nH]2)cc1C(=O)O` [Example 204, 5-({6-chloro-5-[4-(3,5-dimethylisoxazol-4-yl)phenyl]-1H-benzimidazol-2-yl}oxy)-2-methylbenzoic acid] as the molecule, how does the Emax read?
**A.** Its Emax is greater than 80%.

**Q.** How did the Emax turn out when `Cc1ccc(Oc2nc3cc(-c4ccc(-c5ccccc5N)cc4)c(Cl)cc3[nH]2)cc1C(=O)O` [Example 205, 5-{[5-(2′-aminobiphenyl-4-yl)-6-chloro-1H-benzimidazol-2-yl]oxy}-2-methylbenzoic acid] was run?
**A.** Its Emax is greater than 80%.

**Q.** How did the Emax turn out when `CC(=O)NS(=O)(=O)c1cccc(Oc2nc3cc(-c4ccc(-c5ccccc5)cc4)c(Cl)cc3[nH]2)c1` [Example 206, N-Acetyl-3-(5-biphenyl-4-yl-6-chloro-1H-benzoimidazol-2-yloxy)-benzenesulfonamide] was run?
**A.** The Emax was greater than 80%.

**Q.** Which Emax does the source give for `Cc1ccc(Oc2nc3cc(-c4ccc(-c5ccccc5)cc4)ccc3[nH]2)cc1C(=O)O` [Example 207, 5-(5-Biphenyl-4-yl-1H-benzoimidazol-2-yloxy)-2-methyl-benzoic acid] here?
**A.** Its Emax is greater than 80%.

**Q.** `Cc1cc(C)c(C(=O)O)cc1Oc1nc2cc(-c3ccc(-c4ccccc4)cc3)c(Cl)cc2[nH]1` [Example 208, 5-(5-Biphenyl-4-yl-6-chloro-1H-benzoimidazol-2-yloxy)-2,4-dimethyl-benzoic acid] was tested. Which Emax did it give?
**A.** The Emax was greater than 80%.

**Q.** With `O=C(O)c1ccc(F)c(Oc2nc3cc(-c4ccc(-c5ccccc5)cc4)c(Cl)cc3[nH]2)c1` [Example 209, 3-(5-Biphenyl-4-yl-6-chloro-1H-benzoimidazol-2-yloxy)-4-fluoro-benzoic acid] as the molecule, how does the Emax read?
**A.** The Emax was greater than 80%.

**Q.** Which Emax does the source give for `O=C(O)c1ccc(Cl)c(Oc2nc3cc(-c4ccc(-c5ccccc5)cc4)c(Cl)cc3[nH]2)c1` [Example 210, 3-(5-Biphenyl-4-yl-6-chloro-1H-benzoimidazol-2-yloxy)-4-chloro-benzoic acid] here?
**A.** The Emax was greater than 80%.

**Q.** How did the Emax turn out when `COc1ccc(C(=O)O)cc1Oc1nc2cc(-c3ccc(-c4ccccc4)cc3)c(Cl)cc2[nH]1` [Example 211, 3-(5-Biphenyl-4-yl-6-chloro-1H-benzoimidazol-2-yloxy)-4-methoxy-benzoic acid] was run?
**A.** The Emax was greater than 80%.

**Q.** Which Emax does the source give for `CCc1ccc(Oc2nc3cc(-c4ccc(-c5ccccc5)cc4)c(Cl)cc3[nH]2)cc1C(=O)O` [Example 212, 5-(5-Biphenyl-4-yl-6-chloro-1H-benzoimidazol-2-yloxy)-2-ethyl-benzoic acid] here?
**A.** The Emax was greater than 80%.

**Q.** Which Emax does the source give for `Cc1cc(Oc2nc3cc(-c4ccc(-c5ccccc5)cc4)c(Cl)cc3[nH]2)c(C)c(C(=O)O)c1` [Example 213, 3-(5-Biphenyl-4-yl-6-chloro-1H-benzoimidazol-2-yloxy)-2,5-dimethyl-benzoic acid] here?
**A.** The Emax was greater than 80%.

**Q.** Which Emax does the source give for `O=C(O)c1cccc(Oc2nc3cc(-c4ccc(-c5ccccc5)cc4)c(Cl)cc3[nH]2)n1` [Example 214, 6-(5-Biphenyl-4-yl-6-chloro-1H-benzoimidazol-2-yloxy)-pyridine-2-carboxylic acid] here?
**A.** The Emax was greater than 80%.

**Q.** With `O=C(O)c1ccnc(Oc2nc3cc(-c4ccc(-c5ccccc5)cc4)c(Cl)cc3[nH]2)c1` [Example 215, 2-(5-Biphenyl-4-yl-6-chloro-1H-benzoimidazol-2-yloxy)-isonicotinic acid] as the molecule, how does the Emax read?
**A.** The Emax was greater than 80%.

**Q.** How did the Emax turn out when `Cc1ccc(C(=O)O)cc1Oc1nc2cc(-c3ccc4c(ccn4C)c3)c(Cl)cc2[nH]1` [Example 216, 3-[6-Chloro-5-(1-methyl-1H-indol-5-yl)-1H-benzoimidazol-2-yloxy]-4-methyl-benzoic acid] was run?
**A.** Its Emax is greater than 80%.

**Q.** Which Emax does the source give for `Cn1ccc2cc(-c3cc4nc(Oc5ccc(Cl)c(C(=O)O)c5)[nH]c4cc3Cl)ccc21` [Example 217, 2-Chloro-5-[6-chloro-5-(1-methyl-1H-indol-5-yl)-1H-benzoimidazol-2-yloxy]-benzoic acid] here?
**A.** The Emax was greater than 80%.

**Q.** With `Cc1c(Oc2nc3cc(-c4ccc5c(ccn5C)c4)c(Cl)cc3[nH]2)cccc1C(=O)O` [Example 218, 3-[6-Chloro-5-(1-methyl-1H-indol-5-yl)-1H-benzoimidazol-2-yloxy]-2-methyl-benzoic acid] as the molecule, how does the Emax read?
**A.** The Emax was greater than 80%.

**Q.** How did the Emax turn out when `NS(=O)(=O)c1cccc(Oc2nc3cc(-c4ccc(-c5ccccc5)cc4)c(Cl)cc3[nH]2)c1` [Example 220, 3-(5-Biphenyl-4-yl-6-chloro-1H-benzoimidazol-2-yloxy)-benzenesulfonamide] was run?
**A.** Its Emax is greater than 80%.

**Q.** For `Cc1ccc(Oc2nc3cc(-c4ccc(-c5ccccc5)cc4)c(Cl)cc3[nH]2)cc1C(=O)NS(C)(=O)=O` [Example 221, N-[5-(5-Biphenyl-4-yl-6-chloro-1H-benzoimidazol-2-yloxy)-2-methyl-benzoyl]-methanesulfonamide], which Emax is on record?
**A.** Its Emax is greater than 80%.

**Q.** How did the Emax turn out when `O=C(NS(=O)(=O)c1ccccc1)c1cccc(Oc2nc3cc(-c4ccc(-c5ccccc5)cc4)c(Cl)cc3[nH]2)c1` [Example 222, N-[3-(5-Biphenyl-4-yl-6-chloro-1H-benzoimidazol-2-yloxy)-benzoyl]-benzenesulfonamide] was run?
**A.** The Emax was greater than 80%.

same assay, conditions: recombinant human AMPK complex 1 (α1β1γ1); read-out: EC50

**Q.** `Cc1ccc(Oc2nc3cc(-c4ccc(C(C)(C)O)cc4)c(Cl)cc3[nH]2)cc1C(=O)O` [Example 183, 5-({6-chloro-5-[4-(1-hydroxy-1-methylethyl)phenyl]-1H-benzimidazol-2-yl}oxy)-2-methylbenzoic acid] was tested. Which EC50 did it give?
**A.** Its EC50 is 16 nM.

**Q.** For `Cc1ccc(Oc2nc3cc(-c4ccc(-c5ccc(C(=O)O)cc5)cc4)c(F)cc3[nH]2)cc1C(=O)O` [Example 184, 4′-[2-3-carboxy-4-methylphenoxy-6-fluoro-1H-benzimidazol-5-yl]biphenyl-4-carboxylic acid], which EC50 is on record?
**A.** Its EC50 is 8 nM.
